Laboratory results published in paper PMC9317966, “Structure-function analysis of the AMPK activator SC4 and identification of a potent pan AMPK activator” (Biochemical Journal, 2022).

Legend:
[1] = target: T1, human GST-AMPK α1β2γ1 (Homo sapiens, UniProt O43741+Q13131); assay: Radiolabel SAMS kinase assay, GST-AMPK from HEK293T/17 cells immobilised on glutathione-Sepharose; type: biochemical; conditions: 1 µM compound
T1 construct: triply transfected with full-length AMPK α1 or α2 (NH2-terminal GST fusion, pDEST27 vector); full-length AMPK α1 or α2 (NH2-terminal GST fusion, pDEST27 vector), β1 or β2 (COOH-terminal FLAG fusion, pcDNA3.1 vector); FLAG (C); made in house; host or cells: HEK293T/17 cells, transient triple transfection
Source text: (§1) We generated a series of compounds to investigate whether modification of the SC4 2-hydroxybiphenyl LHS fragment affects isoform selectivity, some of which (MSG008-MSG011) are presented in Table 1. We also synthesised compound MSG012 (example I-3-54 [32]), which was reported to activate α2β2γ1 with ∼100-fold greater potency compared with α1β1γ1. MSG012 differs from SC4 by substitution of the 2-hydroxyphenyl LHS fragment with 3-cyclohexen-4-yl-1-carboxylic acid, and 2-methylbenzoic acid RHS fragment with 1-hydroxy-N,N-dimethylcyclohexan-4-yl-1-carboxamide. Our initial screen involved measuring the activity of recombinant human GST-AMPK complexes expressed in HEK293T/17 cells and immobilised on glutathione-Sepharose (Supplementary Figure S1). Enzyme activity was measured by radiolabelling the synthetic SAMS peptide substrate in the absence or presence of 1 µM compound. Consistent with our previous characterisation, SC4 activated α1β1γ1, α2β1γ1 and α2β2γ1 >2.3-fold, and weakly activated α1β2γ1 1.3-fold (Figure 1A). […] The γ isoform had little influence on AMPK activation by MSG011 as most γ2 and γ3 complexes were activated >2.2-fold at 1 µM, with α1β2γ2 being the only exception (1.6-fold activation). […] Accordingly, MSG010, MSG011 and MSG012 can be classified as pan AMPK activators.
(§2) Adherent HEK293T/17 cells at ∼50% confluency were triply transfected with full-length AMPK α1 or α2 (NH2-terminal GST fusion, pDEST27 vector), β1 or β2 (COOH-terminal FLAG fusion, pcDNA3.1 vector), and γ1, γ2 or γ3 (NH2-terminal HA fusion, pMT2 vector) in the presence of FuGENE HD transfection reagent (Promega) as per the manufacturers protocol. Cells were harvested 48 hours post-transfection by first gently washing in ice cold phosphate buffered saline (PBS; Sigma–Aldrich), then scraping in ice cold lysis buffer (50 mM TRIS pH 7.5, 150 mM NaCl, 10% (v/v) glycerol, 50 mM NaF, 5 mM sodium pyrophosphate, 1% (v/v) Triton X-100, cOmplete protease inhibitor cocktail). Lysates were clarified by centrifugation (16 000g, 3 min, 4°C), flash frozen in liquid N2 and stored at −80°C until analysis. For radioactive kinase assays, AMPK was immobilised on glutathione Sepharose 4B resin (GE Healthcare) by incubation with lysates for 1.5 h at 4°C. Following centrifugation (1000g, 3 min, 4°C), the resin was washed twice in purification buffer (50 mM HEPES pH 7.4, 150 mM NaCl, 10% (v/v) glycerol, 0.02% (v/v) Tween-20), once in 50 mM HEPES pH 7.4 with 0.02% (v/v) Tween-20, then resuspended to a 50% slurry with 50 mM HEPES pH 7.4 and 10 µl added to the activity assays. For in solution kinase assays, α1β1γ1 AMPK was eluted from glutathione-Sepharose by incubating with purification buffer supplemented with 40 mM reduced glutathione (Sigma–Aldrich).
(§3) AMPK activity was determined by phosphorylation of the SAMS peptide (Purar Chemicals, sequence: NH2-HMRSAMSGLHLVKRR-COOH) in a 25 µl reaction volume containing 100 µM SAMS peptide, 5 mM MgCl2, 200 µM ATP, [γ-^32P]-ATP (PerkinElmer) and assay buffer (50 mM HEPES pH 7.4, 1 mM DTT and 0.02% (v/v) Tween-20) and purified AMPK. Phosphotransferase activity was conducted at 30°C for 10 min and reactions were quenched by spotting 15 µl onto phosphocellulose ion-exchange chromatography paper (made in-house), followed by repeated washes in 1% H3PO4 (Merck Millipore). Ultima Gold liquid scintillation fluid (5 ml; PerkinElmer) was added to vials containing dried phosphocellulose papers, and the level of ^32P-transfer to the SAMS peptide was determined using a Tri-Carb 2900TR liquid scintillation counter (PerkinElmer).

[2] = target: T2, human GST-AMPK α2β2γ1 (Homo sapiens, UniProt O43741+P54646); assay: as above; type: biochemical; conditions: 1 µM compound
T2 construct: triply transfected with full-length AMPK α1 or α2 (NH2-terminal GST fusion, pDEST27 vector); full-length AMPK α1 or α2 (NH2-terminal GST fusion, pDEST27 vector), β1 or β2 (COOH-terminal FLAG fusion, pcDNA3.1 vector); FLAG (C); made in house; host or cells: HEK293T/17 cells, transient triple transfection
Source text: as §1, §2, §3

[3] = target: T3, human GST-AMPK α1β1γ1 (Homo sapiens, UniProt Q13131+Q9Y478); assay: as above; type: biochemical; conditions: for fold AMPK activation relative to vehicle: 1 µM compound
T3 construct: triply transfected with full-length AMPK α1 or α2 (NH2-terminal GST fusion, pDEST27 vector); full-length AMPK α1 or α2 (NH2-terminal GST fusion, pDEST27 vector), β1 or β2 (COOH-terminal FLAG fusion, pcDNA3.1 vector); FLAG (C); made in house; host or cells: HEK293T/17 cells, transient triple transfection
Source text: as §1, §2, §3

[4] = target: T4, human GST-AMPK α2β1γ1 (Homo sapiens, UniProt P54646+Q9Y478); assay: as above; type: biochemical; conditions: 1 µM compound
T4 construct: triply transfected with full-length AMPK α1 or α2 (NH2-terminal GST fusion, pDEST27 vector); full-length AMPK α1 or α2 (NH2-terminal GST fusion, pDEST27 vector), β1 or β2 (COOH-terminal FLAG fusion, pcDNA3.1 vector); FLAG (C); made in house; host or cells: HEK293T/17 cells, transient triple transfection
Source text: as §1, §2, §3

[5] = test system: α1β2γ1 AMPK; design: method as in PMID 29657085; conditions: α1β2γ1, in solution, mammalian cell-expressed AMPK, cited from earlier work
[6] = test system: AMPK β1-Ser108 exchanged for Ala; design: method as in PMID 24352254, PMID 29657085; conditions: cited from earlier work
[7] = test system: α1β1γ1 AMPK; design: method as in PMID 29657085; conditions: α1β1γ1, in solution, mammalian cell-expressed AMPK; cited from earlier work
[8] = test system: α2β2γ1 AMPK; design: method as in PMID 29657085; conditions: α2β2γ1, in solution, mammalian cell-expressed AMPK; cited from earlier work
[9] = test system: α2β2γ1 AMPK; design: method as in earlier work; conditions: reported for example I-3-54; cited from earlier work
[10] = target: T1, human GST-AMPK α1β2γ1; assay: Radiolabel SAMS kinase assay, GST-AMPK from HEK293T/17 cells immobilised on glutathione-Sepharose; type: biochemical
[11] = target: T4, human GST-AMPK α2β1γ1; assay: as above; type: biochemical
[12] = target: T2, human GST-AMPK α2β2γ1; assay: as above; type: biochemical

T2 sequence (P54646 whole entry, the tested form may be a part): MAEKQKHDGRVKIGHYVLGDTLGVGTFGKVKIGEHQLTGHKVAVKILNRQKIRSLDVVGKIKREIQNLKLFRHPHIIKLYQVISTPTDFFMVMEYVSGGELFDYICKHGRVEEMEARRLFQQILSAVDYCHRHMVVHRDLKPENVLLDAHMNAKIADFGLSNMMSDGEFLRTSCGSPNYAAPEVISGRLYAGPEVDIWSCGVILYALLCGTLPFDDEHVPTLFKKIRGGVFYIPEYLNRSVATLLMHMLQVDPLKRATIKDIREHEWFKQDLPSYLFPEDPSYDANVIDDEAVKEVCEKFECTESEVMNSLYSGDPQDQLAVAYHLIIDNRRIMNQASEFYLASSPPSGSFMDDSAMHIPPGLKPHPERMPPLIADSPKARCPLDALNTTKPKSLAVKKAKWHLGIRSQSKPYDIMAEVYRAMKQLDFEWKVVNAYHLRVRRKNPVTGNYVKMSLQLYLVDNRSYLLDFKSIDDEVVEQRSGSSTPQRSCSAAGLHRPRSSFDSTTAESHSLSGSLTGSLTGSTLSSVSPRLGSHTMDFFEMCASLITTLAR
T2 sequence (O43741 whole entry, the tested form may be a part): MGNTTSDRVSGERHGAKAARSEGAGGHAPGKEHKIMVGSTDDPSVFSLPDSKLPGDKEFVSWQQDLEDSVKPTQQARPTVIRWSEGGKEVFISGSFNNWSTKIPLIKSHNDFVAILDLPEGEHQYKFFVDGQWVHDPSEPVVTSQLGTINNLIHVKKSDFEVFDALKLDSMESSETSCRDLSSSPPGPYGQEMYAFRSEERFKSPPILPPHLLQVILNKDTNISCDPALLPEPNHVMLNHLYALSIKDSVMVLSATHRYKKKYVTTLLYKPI
T2 sequence (P54619 whole entry partner, the tested form may be a part): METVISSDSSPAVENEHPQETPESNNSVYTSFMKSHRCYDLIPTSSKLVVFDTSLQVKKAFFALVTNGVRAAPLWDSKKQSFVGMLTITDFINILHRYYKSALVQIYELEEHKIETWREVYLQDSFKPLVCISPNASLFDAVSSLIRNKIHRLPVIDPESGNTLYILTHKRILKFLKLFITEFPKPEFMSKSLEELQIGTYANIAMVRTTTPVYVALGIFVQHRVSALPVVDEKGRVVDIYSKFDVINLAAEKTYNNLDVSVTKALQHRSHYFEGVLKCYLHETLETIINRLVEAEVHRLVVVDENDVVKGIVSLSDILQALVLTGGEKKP
T4 sequence (P54646 whole entry, the tested form may be a part): as the sequence (P54646 whole entry, the tested form may be a part) above
T4 sequence (Q9Y478 whole entry, the tested form may be a part): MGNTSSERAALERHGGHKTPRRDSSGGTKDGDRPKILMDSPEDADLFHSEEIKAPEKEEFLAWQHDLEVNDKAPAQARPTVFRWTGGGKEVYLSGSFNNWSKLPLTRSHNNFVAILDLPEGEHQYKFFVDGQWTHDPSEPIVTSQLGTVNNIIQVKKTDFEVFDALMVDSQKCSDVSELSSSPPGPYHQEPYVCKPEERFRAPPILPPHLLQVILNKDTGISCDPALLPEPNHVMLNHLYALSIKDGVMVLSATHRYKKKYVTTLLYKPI
T4 sequence (P54619 whole entry partner, the tested form may be a part): as the sequence (P54619 whole entry partner, the tested form may be a part) above
T1 sequence (Q13131 whole entry, the tested form may be a part): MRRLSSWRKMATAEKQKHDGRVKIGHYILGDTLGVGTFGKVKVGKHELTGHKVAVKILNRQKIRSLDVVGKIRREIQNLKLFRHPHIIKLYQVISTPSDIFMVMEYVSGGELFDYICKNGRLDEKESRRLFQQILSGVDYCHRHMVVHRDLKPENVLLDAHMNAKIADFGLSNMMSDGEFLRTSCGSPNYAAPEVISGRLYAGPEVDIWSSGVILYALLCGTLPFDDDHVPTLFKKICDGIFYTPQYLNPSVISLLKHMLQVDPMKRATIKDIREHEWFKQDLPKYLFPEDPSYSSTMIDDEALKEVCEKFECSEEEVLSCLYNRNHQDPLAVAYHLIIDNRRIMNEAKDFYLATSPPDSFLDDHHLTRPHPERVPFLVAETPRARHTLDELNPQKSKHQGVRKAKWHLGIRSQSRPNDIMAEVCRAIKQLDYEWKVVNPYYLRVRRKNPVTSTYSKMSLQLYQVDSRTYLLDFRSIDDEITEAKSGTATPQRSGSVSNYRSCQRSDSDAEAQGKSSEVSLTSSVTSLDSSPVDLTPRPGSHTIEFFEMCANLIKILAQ
T1 sequence (O43741 whole entry, the tested form may be a part): as the sequence (O43741 whole entry, the tested form may be a part) above
T1 sequence (P54619 whole entry partner, the tested form may be a part): as the sequence (P54619 whole entry partner, the tested form may be a part) above
T3 sequence (Q13131 whole entry, the tested form may be a part): as the sequence (Q13131 whole entry, the tested form may be a part) above
T3 sequence (Q9Y478 whole entry, the tested form may be a part): as the sequence (Q9Y478 whole entry, the tested form may be a part) above
T3 sequence (P54619 whole entry partner, the tested form may be a part): as the sequence (P54619 whole entry partner, the tested form may be a part) above

fold AMPK activation relative to vehicle [1]	fold AMPK activation relative to vehicle [2]	fold AMPK activation relative to vehicle [3]	fold AMPK activation relative to vehicle [4]	Max. fold activation ([3]; immobilised α1β1γ1)	EC50 ([3]; immobilised α1β1γ1, 0–30 µM activator)	Max. fold activation ([10]; immobilised α1β2γ1)	EC50 ([10]; immobilised α1β2γ1, 0–30 µM activator)	Max. fold activation ([11]; immobilised α2β1γ1)	EC50 ([11]; immobilised α2β1γ1, 0–30 µM activator)	Max. fold activation ([12]; immobilised α2β2γ1)	EC50 ([12]; immobilised α2β2γ1, 0–30 µM activator)	SMILES	EC50 ([5]; R2 for curve fit = 0.773)	Max. fold activation [5]	reduction of activating potency on loss of β1-Ser108 phosphorylation via exchange for Ala [6]	EC50 [7]	Max. fold activation [7]	EC50 [8]	Max. fold activation [8]	greater potency for α2β2γ1 compared with α1β1γ1 [9]
> 2.2 fold	> 2.2 fold	> 2.2 fold	> 2.2 fold	–	–	–	–	–	–	–	–	Cc1ccc(Oc2nc3nc(-c4ccc(C5=CCC(C(=O)O)CC5)cc4)c(Cl)cc3[nH]2)cc1C(=O)O (stereo not shown) [MSG010, 4′-(2-(3-carboxy-4-methylphenoxy)-6-chloro-1H-imidazo[4,5-b]pyridin-5-yl)-2,3,4,5-tetrahydro-[1,1′-biphenyl]-4-carboxylic acid]	–	–	–	–	–	–	–	–
1.3 fold	> 2.3 fold	> 2.3 fold	> 2.3 fold	–	–	–	–	–	–	–	–	Cc1ccc(Oc2nc3nc(-c4ccc(-c5ccccc5O)cc4)c(Cl)cc3[nH]2)cc1C(=O)O [SC4]	28.6 nM	1.4 fold	~4 fold	5.1 nM	2.9 fold	17.2 nM	2.5 fold	–
≤ 1.3 fold	≤ 1.3 fold	≤ 1.3 fold	≤ 1.3 fold	–	–	–	–	–	–	–	–	COCCc1cccc(-c2nc3nc(Oc4ccc(C)c(C(=O)O)c4)[nH]c3cc2Cl)c1 [MSG008, 5-((6-Chloro-5-(3-(2-methoxyethyl)phenyl)-1H-imidazo[4,5-b]pyridin-2-yl)oxy)-2-methylbenzoic acid]	–	–	–	–	–	–	–	–
–	–	–	–	1.9 fold	103 nM	1.9 fold	232 nM	6.1 fold	332 nM	2.9 fold	328 nM	CN(C)C(=O)C1(O)CCC(Oc2nc3nc(-c4ccc(C5=CCC(C(=O)O)CC5)cc4)c(Cl)cc3[nH]2)CC1 (stereo not shown) [MSG012, 4′-(6-Chloro-2-(((1s,4s)-4-(dimethylcarbamoyl)-4-hydroxycyclohexyl)oxy)-1H-imidazo[4,5-b]pyridin-5-yl)-2,3,4,5-tetrahydro-[1,1′-biphenyl]-4-carboxylic acid]	–	–	–	–	–	–	–	~100 fold
